From paper PMC6372556, “The Neisseria gonorrhoeae Methionine Sulfoxide Reductase (MsrA/B) Is a Surface Exposed, Immunogenic, Vaccine Candidate” (Frontiers in Immunology, 2019)

Target: T1, MsrA/B
T1 construct: recombinant, msr gene of strain 1291 in pET15b (NdeI/XhoI primers), His-tagged, E. coli BL21 Star (DE3)pLysS, TALON purified; full protein 522 aa; amine-coupled to SPR chip
Assay: SPR, Biacore T200, single cycle kinetics, MsrA/B immobilized by amine coupling on CM5 chip
Type: binding, Neisseria gonorrhoeae
Conditions: free Met(O) 0.16-100 nM; no serum; substrate; sulfoxide epimer and D/L form not told
Text: SPR, Biacore T200, single cycle kinetics, MsrA/B immobilized by amine coupling on CM5 chip on MsrA/B | MsrA/B bound to Met(O) with a high affinity, with a KD

`C[S+]([O-])CC[C@H](N)C(=O)O` (stereo partly shown) [Met(O)] was tested, and the Kd was 15.4 ± 3.7 nM.
